“Also recorded” adds a separate entry of the source.
Tested on: α-glucosidase
Experiment: In vitro α-glucosidase inhibitory assay
Type: biochemical
Design: key to IC50 (α-glucosidase inhibition), dash = inactive: (-) indicates inactive compounds
Conditions: for α-glucosidase inhibitory activity (in words): in vitro; for IC50 / IC50 (α-glucosidase inhibition), dash = inactive: sucrose substrate, 37 °C, 30 min, n = 3; for IC50: read-out: IC50 (α-glucosidase inhibition)
Experimental: The assay of α-glucosidase inhibitory activity of compounds was adopted from. Briefly, 100 μL of DMSO and 100 μL of α-glucosidase enzyme (5 U/mL in 0.15 M HEPES buffer) were added to 100 μL substrate (0.1 M sucrose solution dissolved into 0.15 M HEPES buffer). The mixture was vortexed for 5 sec and then incubated at 37 °C for 30 min to allow for enzymatic reaction. After incubation, the reaction was stopped by heating at 100 °C for 10 min in a block incubator. The formation of glucose was determined by means of glucose oxidase method, using a BF-5S Biosensor (Oji Scientific Instruments, Hyogo, Japan). Mathematically, α-glucosidase inhibitory activity of each sample was calculated according to this equation: (Average value of control (Ac) − average value of the sample (As))/Ac × 100.
The IC50 values were calculated from plots of log concentration of inhibitor concentration against the percentage inhibition curves, using Microsoft Excel 2016. The data were expressed as mean ± standard deviation (SD) of at least three independent experiments (n = 3).

| SMILES | α-glucosidase inhibitory activity (in words) | IC50 [µM] | IC50 (α-glucosidase inhibition), dash = inactive |
| --- | --- | --- | --- |
| CC1OC(OC2C(Oc3cc(O)c(C4OC(C)C(O)C(O)C4OC(=O)C=Cc4ccc(O)cc4)c(O)c3C(=O)CCc3ccc(O)cc3)OC(CO)C2O)C(O)C(O)C1O (centres unmarked) [Compound 12, carambolaside Q] | relatively strong activity; also recorded: Potent inhibition | 323.6 ± 0.06 |  |
| CC1OC(OC2C(Oc3cc(O)c(C4OC(C)C(O)C(OC5OC(C)C(O)C(O)C5O)C4OC(=O)C=Cc4ccccc4)c(O)c3C(=O)CCc3ccc(O)cc3)OC(CO)C2O)C(O)C(O)C1O (centres unmarked) [Compound 7, carambolaside J] | inactive |  | - |
| CC(=O)OC1C(C)OC(c2c(O)cc(OC3OC(CO)C(O)C3OC3OC(C)C(O)C(O)C3O)c(C(=O)CCc3ccc(O)cc3)c2O)C(OC(=O)C=Cc2ccc(O)cc2)C1OC1OC(C)C(O)C(O)C1O (centres unmarked) [Compound 11, Mix of 4″-O-acetyl-carambolaside P and 4″-O-acetyl-carambolaside O] | inactive |  | - |
| CC1OC(OC2C(c3c(O)cc4oc(-c5ccc(O)c(O)c5)cc(=O)c4c3O)OC(C)C(O)C2O)C(O)C(O)C1O [Compound 2, luteolin 6-C-α-L-rhamnopyranosyl-(1-2)-β-D-fucopyranoside] | highest inhibitory activity among all isolated flavone glycosides; also recorded: Potent inhibition | 328 |  |
| CC1OC(OC2C(Oc3cc(O)c(C4OC(C)C(O)C(O)C4OC(=O)C=Cc4ccccc4)c(O)c3C(=O)CCc3ccc(O)cc3)OC(CO)C2O)C(O)C(O)C1O (centres unmarked) [Compound 9, carambolaside I] | inactive |  | - |
| CC(=O)OC1C(C)OC(c2c(O)cc(OC3OC(CO)C(O)C3OC3OC(C)C(O)C(O)C3O)c(C(=O)CCc3ccc(O)cc3)c2O)C(OC(=O)C=Cc2ccccc2)C1OC1OC(C)C(O)C(O)C1O [Compound 8, phloretin 3′-C-(2-O-(E)-cinnamoyl-3-O-β-D-fucopyranosyl-4-O-acetyl)-β-D-fucopyranosyl-6′-O-β-D fucopyranosyl-(1/2)-α-L arabinofuranoside] | inactive |  | - |
| O=c1cc(-c2ccc(O)cc2)oc2cc(O)c(C3OC(CO)C(O)C(O)C3O)c(O)c12 [Compound 3, apigenin 6-C-β-D-galactopyranoside] | Potent inhibition | 439 |  |
| CC1OC(c2c(O)cc(OC3OC(CO)C(O)C3O)c(C(=O)CCc3ccc(O)cc3)c2O)C(O)C(O)C1OC1OC(CO)C(O)C(O)C1O (centres unmarked) [Compound 5, carambolaside M] | inactive |  | - |

More lines, now with the values ahead:

| α-glucosidase inhibitory activity (in words) | IC50 [µM] | IC50 (α-glucosidase inhibition), dash = inactive | SMILES |
| --- | --- | --- | --- |
|  | 48.2 ± 0.02 |  | O=c1cc(-c2ccc(O)c(O)c2)oc2cc(O)cc(O)c12 [Luteolin, reference compound] |
|  | 85.6 ± 0.01 |  | O=c1cc(-c2ccc(O)cc2)oc2cc(O)cc(O)c12 [Apigenin, reference compound] |
|  | 613 |  | C[C@H]1O[C@@H](Oc2cc3oc(-c4ccc(O)cc4)cc(=O)c3c(O)c2[C@H]2C[C@@H](O)[C@@H](O)[C@@H](CO)O2)[C@H](O)[C@@H](O)[C@@H]1O [Compound 1, apigenin 6-C-(2-deoxy-β-D-galactopyranoside)-7-O-β-D-quinovopyranoside] |
|  | 110.4 ± 0.06 |  | O=C(CCc1ccc(O)cc1)c1c(O)cc(O)cc1O [Phloretin, reference compound] |
| inactive |  | - | CC1OC(OC2C(Oc3cc(O)c(C4OC(C)C(O)C(O)C4O)c(O)c3C(=O)CCc3ccc(O)cc3)OC(CO)C2O)C(O)C(O)C1O (centres unmarked) [Compound 6, carambolaside Ia] |
| moderate inhibitory activity | 853.1 ± 0.02 |  | O=C(CCc1ccc(O)cc1)c1c(O)cc(O)cc1O[C@@H]1O[C@H](CO)[C@@H](O)[C@H](O)[C@H]1O [Phloridzin, phloretin-2′-glucose, reference compound] |
| Potent inhibition | 390 |  | CC1OC(OC2C(c3c(O)cc4oc(-c5ccc(O)cc5)cc(=O)c4c3O)OC(C)C(O)C2O)C(O)C(O)C1O [Compound 4, apigenin 6-C-α-L-rhamnopyranosyl-(1-2)-β-L-fucopyranoside] |

Source: publication PMC9413271, “Anti-Obesity Evaluation of Averrhoa carambola L. Leaves and Assessment of Its Polyphenols as Potential α-Glucosidase Inhibitors” (Molecules, 2022)
